The results in this text go back to patent publication US12594265B2, “Methods and compositions for inhibition of STAT3” (Ohio State Innovation Foundation, priority 2017, dated 2026).

The subject of this experiment is IL-17 production in PBMCs from MS patients. It is filed as cell-based, human. Conditions: for IL-17 production in PBMCs from MS patients: activated with anti-CD3 for three or six days, different concentrations. As to the method:
FIGS. 14A-14M show representative data for LLL12b suppression of human Th17 development and promotion of Treg development in CD4 T-cells from MS patients. FIGS. 14A, 14E, 14H, and 14K each shown representative data obtained in PBMCs from 22 treatment-naïve MS patients that were activated with αhCD3 plus rhIL-6 for 3 days, in the presence of 0.125 μM or 0.25 μM of LLL12b. DMSO was used as a vehicle control. IL-17 in supernatant was determined by ELISA. FIGS. 14B-14C, 14F, 14I, and 14L each shown representative data obtained in PBMCs from 22 treatment-naïve MS patients that were activated with αhCD3/CD28 plus rhTGFβ. rhIL-2 and RA for 3 days, in the presence of 0.125 μM of LLL12b. DMSO was used as vehicle control. CD25+FoxP3+CD4+ iTregs were determined by intracellular flow cytometry. Cells were gated CD45RA+CD4+ cells. […] IL-17 in each group was compared with one-way ANOVA. […] FIG. 14G the calculated IL-17/Treg ratio of each patient in LLL12b group and DMSO group and compared with Wilcoxon matched-pairs signed rank test. […] FIG. 14J the calculated percent decrease of IL-17/Treg ratio in LLL12b group compared to DMSO group. […] FIG. 14M patient numbers in different ranges of calculated percent decrease of IL-17/Treg.
FIGS. 12A-12B show representative data for the effect of a representative disclosed compound, LLL12b, on the production of proinflammatory cytokines in human peripheral blood mononuclear cells (PBMCs).
LLL12b reduces Teff/Treg ratio by suppressing human Th17 development and promoting Treg development of CD4 T cells from MS patients. Teff/Treg balance is critical for the normal function of the human immune system and increased Teff/Treg ratio favors autoimmunity. As IL-6/STAT3 signaling pathway is critical for the highly encephalitogenic Th17 cells while blocks the development of inducible Tregs (iTregs), we hypothesize that novel small molecule STAT3 inhibitor LLL12b will reduces Teff/Treg ratio by suppressing Th17 development and/or prompting iTreg development. Therefore, we determined the effects of LLL12b on IL-17 production and iTreg development of CD4 T cells from 22 treatment-naïve MS patients (FIGS. 14A-14M). Human PBMCs from 22 treatment-naïve MS patients were activated with αhCD3 for 3 days, in the presence of different concentrations of LLL12b or vehicle control (DMSO), IL-17 production in supernatants was determined by ELISA. As the myelin-reactive CD4 T cells in MS patients are predominantly from the memory T-cell compartment, we activated human PBMCs with αhCD3 to specifically activate effector/memory CD4 T cells.
To determine whether LLL12b treatment decreases Th17/Treg ratio in CD4 T cells from MS patients, the IL-17/Treg ratio of all 22 treatment-naïve MS patients treated with LLL12b was calculated and compared with those treated with DMSO (FIGS. 14G, 14J, and 14M). The data in Table 2 show the patient numbers in different ranges of percentage decrease of IL-17, percentage increase of iTregs or percentage decrease of IL-17/iTreg of 22 treatment-naïve MS patients treated with LLL12b compared to DMSO treatment.

[1] abbreviates: of 22 treatment-naïve MS patients, compared to DMSO.

Turning to `NS(=O)(=O)c1cccc2c1C(=O)c1cccc(O)c1C2=O` [LLL12], the “IL-17 production in PBMCs from MS patients” value is given as “suppress IL-17 production”.
As to `CN(C)C(=O)Oc1cccc2c1C(=O)c1cccc(S(N)(=O)=O)c1C2=O` [LLL12b], the “IL-17 production in PBMCs from MS patients” value was “suppress IL-17 production”. Moreover, the hIL-17 production result (0.125 μM and 0.25 μM, one MS patient, 3 days) is reported as “suppressed hIL-17 production”. Moreover, the “IL-17 production in effector/memory human CD4 T cells” value (0.125 μM, 22 treatment-naïve MS patients) is on record as “significantly suppressed IL-17 production”. Moreover, the IL-17/Treg ratio entry (22 treatment-naïve MS patients, compared to DMSO treated group) was “significantly lower”. Under setting [1], the “patient numbers with % Decrease of IL-17 5-20%” value came to 11, the “patient numbers with % Decrease of IL-17 20-40%” value turned out to be 7, the “patient numbers with % Decrease of IL-17/iTreg ratio 5-20%” value is on record as 5 and the “patient numbers with % Decrease of IL-17/iTreg ratio 20-40%” value was 13. Moreover, under setting [1], the “patient numbers with % Decrease of IL-17/iTreg ratio <5%” value stood at 1, the “patient numbers with % Decrease of IL-17/iTreg ratio >40%” value worked out at 3, the “patient numbers with % Decrease of IL-17 <5%” value is given as 1 and the “patient numbers with % Decrease of IL-17 >40%” value is recorded as 3.
